Source: patent US10821177B2, “Induction of differential stress resistance and uses thereof” (University of Southern California, priority 2007, dated 2020)
Where two headings read alike, the source gives them in different places. Marks after values point to notes of the source that are not given here.

Columns and labels:
NXS2 neuroblastoma cells [1] = details: for No toxicity deaths: deaths / mice
Excerpt: (§1) The murine NX3IT28 cell line was generated by hybridization of the GD2-negative C1300 murine neuroblastoma cell line (A/J background) with murine dorsal root ganglional cells from C57BL16J mice, as previously described. The NXS2 sublime was then created by the selection of NX3IT28 cells with high GD2 expression.
Six-to-seven-week-old female NJ mice, weighing 15-18 g were purchased from Harlan Laboratories (Harlan Italy, S. Pietro al Natisone, Italy) and housed in sterile enclosures under specific virus and antigen-free conditions. All procedures involving mice and their care were reviewed and approved by licensing and ethical committee of the National Cancer Research Institute, Genoa, Italy, and by the Italian Ministry of Health.
(§2) N J mice were pretreated with 1 mg/kg/day doses of human octreotide (OCT, ProSpec-Tany TechnoGene, Rehovot, Israel) for 4 days given slowly through the tail vein in a volume of 100 pl and then injected intravenously with murine neuroblastoma NXS2 cell line (200,000/mouse), as previously described. After tumor cell inoculum, some groups of animals were starved for 48 hours and then i.v. treated with 80 mg/kg of Etoposide Teva (Teva Pharma B.V., Mijdrecht, Holland), administered as a single dose. Additional daily doses of OCT were administered for 4 days after chemotherapy. Control groups of mice without diet starvation and OCT treatment were also investigated.
(§3) To determine toxicity and efficacy, mice were monitored routinely for weight loss and general behavior. […] Survival time was used as the main criterion for determining the efficacy of each treatment.
The statistical significance of differential survival between experimental groups of animals was determined by Kaplan-Meier curves and log-rank […] test by the use of StatDirect statistical software (Camcode, Ashwell, UK).
as §1, with “C57BL/6J” for “C57BL16J”, “subline” for “sublime”
as §2, with “Six-to-seven-week-old female A/J mice, weighing 15-18 g were purchased from Harlan Laboratories (Harlan Italy, S. Pietro al Natisone, Italy) and housed in sterile enclosures under specific virus and antigen-free conditions. All procedures involving mice and their care were reviewed and approved by licensing and ethical committee of the National cancer Research Institute, Genoa, Italy, and by the Italian Ministry of Health. A/J” for “N J”, “μl” for “pl”, “injection,” for “inoculum,”
The statistical significance of differential survival between experimental groups of animals was determined by Kaplan-Meier curves and log-rank (Peto) test by the use of StatDirect statistical software (CamCode, Ashwell, UK). In some experiments, four-week-old female CD1 mice (Harlan), weighing 18-20 g were used to evaluate stress resistance after 60-hour diet starvation. These animals, i.v. injected with 110 mg/kg etoposide, were monitored routinely for weight loss and general behavior. Survival time was used as the main criterion for determining the differential stress resistance after short-term starvation.

A/J mice [2] = assay: Resistance to high-dose etoposide (80 mg/kg) in A/J mice after STS and/or octreotide
Description: as §2, §3
as §2, with “Six-to-seven-week-old female A/J mice, weighing 15-18 g were purchased from Harlan Laboratories (Harlan Italy, S. Pietro al Natisone, Italy) and housed in sterile enclosures under specific virus and antigen-free conditions. All procedures involving mice and their care were reviewed and approved by licensing and ethical committee of the National cancer Research Institute, Genoa, Italy, and by the Italian Ministry of Health. A/J” for “N J”, “μl” for “pl”, “injection,” for “inoculum,”

athymic (Nude-nu) mice = assay: Resistance to high-dose etoposide (100 mg/kg) in athymic (Nude-nu) mice; format: in vivo, mouse; details: 100 mg/kg etoposide
Description: In other experiments, four-week old female athymic (Nude-nu) mice (Harlan), weighing 20-22 gr were used to evaluate stress resistance after a 48-hour starvation. These animals were i.v.-injected with 100 mg/Kg etoposide and then monitored routinely for weight loss and general behavior.

NXS2 neuroblastoma cells [3] = assay: Effect of octreotide on etoposide cytotoxicity in NXS2 cells, trypan blue; format: cell-based, mouse; details: 10 or 50 micromolar octreotide, etoposide 1-3 μM, 72 hours
Description: FIG. 8. Survival of neuroblastoma (NXS2)-bearing mice. All mice were inoculated i.v. with 200,000 NXS2 cells/mouse on day 4. The different groups were treated as follows: A) Gr. 1: Control (16 mice)=i.v. inoculation with NSX2 tumor cells on day 4. Gr. 2: Oct (8 mice)=pre-treatment with 1 mg/kg/day octreotide for 4 days before and after tumor injection on day 4. Gr. 3: Oct/STS/Oct (8 mice)=pre-treatment with 1 mg/kg/day Oct before tumor cell injection on day 4+48-hour STS on days 4-6+post-treatment with 1 mg/kg/day Oct on days 8-11. Gr. […] Viability was determined by counting the cells with a contrast phase microscope. The proportion of dead (or living) cells was calculated by dividing the number of dead (or living) cells by the total number of cells per field. […]
NXS2 neuroblastoma cells treated with different concentrations of etoposide (1-3 μM) in presence or absence of octreotide (10 and 50 μM) for 72 hours were harvested by scraping, washed with complete medium, and incubated with trypan blue (0.04%; Sigma; St. Louis, Mo.) for 1 minute at 37° C. The cells were then placed in a Burker chamber (Tecnovetro, Monza Milan, Italy) and counted by viewing with a contrast phase microscope (Olympus Optical Co LTD, Tokyo, Japan). […] The proportion of dead (or living) cells was calculated by dividing the number of dead (or living) cells by the total number of cells per field.

mice = assay: Octreotide protection of mice against paraquat; format: in vivo, mouse; details: octreotide treatment
A/J mice [4] = assay: High-dose doxorubicin toxicity in A/J mice with or without 48-hour STS; format: in vivo, mouse
Description: FIG. 20. A/J mice, weighing 18-20 g, were starved for 48 hours (STS), and followed by a single intravenous injection of high dose doxorubicin (16 mg/kg). The toxicity, evaluated by (A) percent survival and (B) daily weight measurements, are shown.

LID mice [5] = assay: Multiple treatments with doxorubicin in LID mice; format: in vivo, mouse; details: doxorubicin 20 mg/kg then 28 mg/kg 22 days later
Description: FIG. 22. Resistance to multiple treatments with doxorubicin. Doxorubicin was intravenously administered at 20 mg/kg on Day 0 and 28 mg/kg on Day 22 (n=5). The toxicity, evaluated by (A) percent survival and (B) daily weight measurements, are shown. p-value was calculated by log rank test (p<0.05).

CD1 mice = assay: Resistance to high-dose etoposide (110 mg/kg) in CD1 mice after 60-hour starvation; format: in vivo, mouse; details: 110 mg/Kg etoposide i.v., with or without 60-hour STS
Description: In some experiments, four-week-old female CD1 mice (Harlan), weighing 18-20 g were used to evaluate stress resistance after 60 hours of starvation. These animals, i.v. injected with 110 mg/kg etoposide, were monitored routinely for weight loss and general behavior. Survival time was used as the main criterion for determining the differential stress resistance after short-term starvation.

LID mice [6] = assay: High-dose etoposide in LID mice; format: in vivo, mouse; details: 100 mg/kg etoposide i.v.; difference in survival not significant
Description: FIG. 21. Resistance to high-dose chemotherapy in LID mice. All mice received an i.v. injection of 100 mg/kg etoposide and were single caged throughout the experiment. The toxicity, evaluated by (A) percent survival and (B) daily weight measurements, are shown. p-value was calculated by log rank test (p=0.06, n=10).

[7] = humans; cited from earlier work
[8] = Table 1, mice with metastases / mice
[9] = Table 1, mice with metastases / mice, 200,000 NXS2 cells i.v.
[10] = Table 2, all mice followed until death, necropsy
[11] = Table 2, early etoposide toxicity deaths not considered
[12] = Table 2, followed until death, necropsy

Structure (SMILES) | Survival Range (NXS2 neuroblastoma cells [1]; Table 1) [days] | Hemorrhagic ascites (NXS2 neuroblastoma cells [1]; Table 1, affected mice / mice) | Adrenal glaud (metastases) (NXS2 neuroblastoma cells [1]; [8]) | Kidneys (metastases) (NXS2 neuroblastoma cells [1]; [8]) | Ovaries (metastases) (NXS2 neuroblastoma cells [1]; [8]) | Liver (metastases) (NXS2 neuroblastoma cells [1]; [9]) | Survival Range (NXS2 neuroblastoma cells [1]; Table 2) [days] | Liver (metastases) (NXS2 neuroblastoma cells [1]; [10]) | No toxicity deaths (NXS2 neuroblastoma cells [1]; Table 2) | Median survival (NXS2 neuroblastoma cells [1]; [11]) [days] | Adrenal gland (metastases) (NXS2 neuroblastoma cells [1]; [12]) | Hemorrhagic ascites (NXS2 neuroblastoma cells [1]; [12]) | Kidneys (metastases) (NXS2 neuroblastoma cells [1]; [12]) | Ovaries (metastases) (NXS2 neuroblastoma cells [1]; [12]) | also measured
C[C@@H](O)[C@@H]1NC(=O)[C@H](CCCCN)NC(=O)[C@@H](Cc2c[nH]c3ccccc23)NC(=O)[C@H](Cc2ccccc2)NC(=O)[C@@H](NC(=O)[C@H](N)Cc2ccccc2)CSSC[C@@H](C(=O)N[C@H](CO)[C@@H](C)O)NC1=O [OCT, octreotide] | 31 to 37 | 8/8 | 2/8 | 8/8 | 8/8 | 8/8 | 31 to 37 | 8/8 | 0/8 | 33 | 2/8 | 8/8 | 8/8 | 8/8 | Median survival (NXS2 neuroblastoma cells [1]; Table 1): 33 days; protection against NXS2-dependent death (NXS2 neuroblastoma cells [1]; octreotide alone, absence of short-term starvation): did not protect; protection against etoposide toxicity (A/J mice [2]; octreotide alone, mice): not sufficient to protect; mice that died (athymic (Nude-nu) mice; octreotide co-treatment and/or 48-hour starvation): all; sensitization of NXS2 cells to etoposide treatment (NXS2 neuroblastoma cells [3]): did not sensitize; protection of mice against the superoxide generator paraquat (mice): sufficient to protect
COc1cccc2c1C(=O)c1c(O)c3c(c(O)c1C2=O)C[C@@](O)(C(=O)CO)C[C@@H]3O[C@H]1C[C@H](N)[C@H](O)[C@H](C)O1 [doxorubicin] |  |  |  |  |  |  |  |  |  |  |  |  |  |  | survival (A/J mice [4]; 16 mg/Kg doxorubicin i.v. after 48-hour STS (n=5)): protected all mice; lethality (A/J mice [4]; 16 mg/Kg doxorubicin i.v., mice not pre-starved): killed all the mice; survival (LID mice [5]; LID mice): All LID mice survived; mice that died (LID mice [5]; control mice): 75%
COc1cc([C@@H]2c3cc4c(cc3[C@@H](O[C@@H]3O[C@@H]5CO[C@@H](C)O[C@H]5[C@H](O)[C@H]3O)[C@H]3COC(=O)[C@H]23)OCO4)cc(OC)c1O [Eto, etoposide] | 87 to 90 | 1/3* | 0/3* | 1/3* | 1/3* | 1/3* | 87 to 140 | 3/3 | 3/6 | 130 | 0/3 | 3/3 | 3/3 | 0/3 | day until which mice did not develop tumors (NXS2 neuroblastoma cells [1]; NXS2-injected mice without STS): 80 days; Median survival (days) (NXS2 neuroblastoma cells [1]; Table 1): 90* days; mice killed by etoposide (A/J mice [2]; 80 mg/Kg etoposide i.v., A/J mice): 43%; weight lost in the four days after etoposide treatment (A/J mice [2]; 80 mg/Kg etoposide, control mice): approximately 20%; mice killed by etoposide (CD1 mice): all; mice killed by etoposide (athymic (Nude-nu) mice; nude mice): 56%; weight change after etoposide (athymic (Nude-nu) mice; nude mice): lost weight; resistance of LID mice compared to controls (LID mice [6]): less resistant; excreted within 48 hours [7]: up to 90%
